According to ChEMBL document CHEMBL1133146, “Potent nonpeptide endothelin antagonists: synthesis and structure-activity relationships of pyrazole-5-carboxylic acids” (Bioorg Med Chem Lett, 2000):

Tests used:
[1] = biological target: T1, Endothelin-1 receptor (Rattus norvegicus, UniProt P26684); assay: In vitro binding affinity to endothelin A receptor in rat heart ventricles
T1 sequence (P26684 whole entry): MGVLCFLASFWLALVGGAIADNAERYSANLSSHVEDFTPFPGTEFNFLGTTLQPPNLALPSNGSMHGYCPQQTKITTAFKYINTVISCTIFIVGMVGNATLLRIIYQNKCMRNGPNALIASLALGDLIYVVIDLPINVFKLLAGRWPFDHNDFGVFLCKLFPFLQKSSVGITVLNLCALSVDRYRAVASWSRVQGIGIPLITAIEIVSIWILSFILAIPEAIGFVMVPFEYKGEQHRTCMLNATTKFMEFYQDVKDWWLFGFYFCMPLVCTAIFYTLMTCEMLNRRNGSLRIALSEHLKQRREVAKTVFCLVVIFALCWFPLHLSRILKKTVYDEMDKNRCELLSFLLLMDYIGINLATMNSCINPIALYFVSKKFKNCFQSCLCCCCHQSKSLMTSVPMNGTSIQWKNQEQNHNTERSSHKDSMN

[2] = biological target: T2, Endothelin receptor type B (Rattus norvegicus, UniProt P21451); assay: In vitro binding affinity to endothelin B receptor in rat cerebellum; type: tissue-based
T2 sequence (P21451 whole entry): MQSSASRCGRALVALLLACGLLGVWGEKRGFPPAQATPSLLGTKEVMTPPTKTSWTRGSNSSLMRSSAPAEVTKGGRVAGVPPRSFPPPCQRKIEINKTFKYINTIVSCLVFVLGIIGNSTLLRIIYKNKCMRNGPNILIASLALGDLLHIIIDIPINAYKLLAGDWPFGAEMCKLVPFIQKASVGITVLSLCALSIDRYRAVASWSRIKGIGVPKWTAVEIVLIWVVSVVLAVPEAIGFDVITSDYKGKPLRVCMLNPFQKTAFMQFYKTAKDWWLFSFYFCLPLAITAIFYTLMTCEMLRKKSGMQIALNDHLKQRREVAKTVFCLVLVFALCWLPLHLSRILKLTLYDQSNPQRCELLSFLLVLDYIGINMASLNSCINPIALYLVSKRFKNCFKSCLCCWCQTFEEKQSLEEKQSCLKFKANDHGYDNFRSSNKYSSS

[3] = system: Endothelin receptor ET-A/ET-B (Rattus norvegicus); assay: Ratio of ETA / ETB was determined; 22/1
[4] = system: Endothelin receptor ET-A/ET-B (Rattus norvegicus); assay: Ratio of ETA / ETB was determined; 1/7

SMILES | IC50 [1] | IC50 [2] | Ratio [3] | Ratio [4]
O=C(O)c1c(Cc2cc3c(cc2Cl)OCO3)c(-c2ccccc2)nn1CC1OCCO1 | 70 nM | 953 nM |  | 
O=C(O)c1c(Cc2cc3c(cc2Cl)OCO3)c(-c2ccco2)nn1CC1CCCCC1 | 1.3 nM | 9.8 nM |  | 
O=C(O)c1c(Cc2cc3c(cc2Cl)OCO3)c(-c2ccccc2)nn1CC1CCCCC1 | 3.6 nM | 2.6 nM |  | 
O=C(O)c1c(Cc2cc3c(cc2Cl)OCO3)c(-c2cccs2)nn1CC1CCCCC1 | 1.1 nM | 1.7 nM |  | 
O=C(O)c1c(Cc2cc3c(cc2Cl)OCO3)c(-c2ccccc2)nn1CC12CC3CC(CC(C3)C1)C2 | 3.4 nM | 4.9 nM |  | 
O=C(O)COc1ccccc1Cn1nc(-c2cccs2)c(Cc2cc3c(cc2Cl)OCO3)c1C(=O)O | 28.3 nM | 4.6 nM |  | 
O=C(O)COC1CCCCC1Cn1nc(-c2ccccc2)c(Cc2cc3c(cc2Cl)OCO3)c1C(=O)O (stereo not drawn) | 20.5 nM | 3.2 nM |  | 
CCC(CC)Cn1nc(-c2ccccc2)c(Cc2cc3c(cc2Cl)OCO3)c1C(=O)O | 15 nM | 31 nM |  | 
COc1ccc(Cn2nc(-c3ccccc3)c(Cc3cc4c(cc3Cl)OCO4)c2C(=O)O)c(OCC(=O)O)c1 | 89 nM | 4 nM | 22 | 
O=C(O)c1c(Cc2cc3c(cc2Cl)OCO3)c(-c2ccccc2)nn1C1CCCCC1 | 226 nM | 131 nM |  | 
O=C(O)c1c(Cc2cc3c(cc2Cl)OCO3)c(-c2ccccc2)nn1CC1CCC(C(=O)O)CC1 (stereo not drawn) | 4.9 nM | 810 nM |  | 
O=C(O)c1c(Cc2cc3c(cc2Cl)OCO3)c(-c2ccccc2)nn1Cc1ccc(Cl)c(Cl)c1 | 34 nM | 26 nM |  | 
COc1ccc(Cn2nc(-c3cccs3)c(Cc3cc4c(cc3Cl)OCO4)c2C(=O)O)c(OCC(=O)O)c1 | 14.9 nM | 8.6 nM |  | 
O=C(O)COc1ccccc1Cn1nc(-c2ccccc2)c(Cc2cc3c(cc2Cl)OCO3)c1C(=O)O | 59 nM | 3.3 nM |  | 
COc1ccc(-c2nn(CC3CCCCC3)c(C(=O)O)c2Cc2cc3c(cc2Cl)OCO3)cc1 |  | 178 nM |  | 
COc1cc(Cn2nc(-c3ccccc3)c(Cc3cc4c(cc3Cl)OCO4)c2C(=O)O)cc(OC)c1 | 28 nM | 9.7 nM |  | 
O=C(O)c1c(Cc2cc3c(cc2Cl)OCO3)c(-c2cccs2)nn1CC1CCC(C(=O)O)CC1 (stereo not drawn) | 0.81 nM | 825 nM |  | 
O=C(O)c1c(Cc2cc3c(cc2Cl)OCO3)c(-c2ccccn2)nn1CC1CCCCC1 | 4.7 nM | 3.4 nM |  | 
O=C(O)c1c(Cc2cc3c(cc2Cl)OCO3)c(-c2ccccc2)nn1Cc1cccc(Cl)c1 | 17 nM | 11 nM |  | 
O=C(O)c1c(Cc2cc3c(cc2Cl)OCO3)c(-c2cccs2)nn1CC1CCCC(C(=O)O)C1 (stereo not drawn) | 1.3 nM | 9.9 nM |  | 7
O=C(O)c1c(Cc2cc3c(cc2Cl)OCO3)c(-c2ccccc2)nn1CC1CCCC(C(=O)O)C1 (stereo not drawn) | 2.5 nM | 14.8 nM |  | 
O=C(O)c1c(Cc2cc3c(cc2Cl)OCO3)c(-c2ccsc2)nn1CC1CCCCC1 | 1.1 nM | 3.2 nM |  | 
O=C(O)c1ccc(Cn2nc(-c3ccccc3)c(Cc3cc4c(cc3Cl)OCO4)c2C(=O)O)cc1 | 11 nM | 2040 nM |  | 
O=C(O)c1c(Cc2cc3c(cc2Cl)OCO3)c(-c2cccnc2)nn1CC1CCCCC1 | 17.8 nM | 6.3 nM |  | 
O=C(O)c1cc(Cn2nc(-c3ccccc3)c(Cc3cc4c(cc3Cl)OCO4)c2C(=O)O)on1 | 79 nM | 440 nM |  | 
O=C(O)c1cc2c(c(Cn3nc(-c4ccccc4)c(Cc4cc5c(cc4Cl)OCO5)c3C(=O)O)c1)OCOC2 | 2.5 nM | 44 nM |  | 
